Experimental data: publication PMC9570109, “Improved Trimethylangelicin Analogs for Cystic Fibrosis: Design, Synthesis and Preliminary Screening” (International Journal of Molecular Sciences, 2022)

Columns and labels:
salmon testes DNA = test: Photoadduct formation with DNA under UVA irradiation (TLC analysis); conditions: 15 J/cm2 UVA
Experimental: The total energy that struck the sample was monitored by means of a radiometer (Variocontrol, Waldmann, Villingen-Schwenningen, Germany), equipped with a Variocontrol UV Sensor (Waldmann). The radiant power emitted by the UVA lamp was about […]. The samples were maintained at room temperature during irradiation.
The test compounds were dissolved in ethanol (2 mg/mL) and salmon testes DNA (Sigma-Aldrich) was dissolved in 10 mM NaCl and 1 mM EDTA solution (1.5 × 10^−3 M). Each test solution (250 μL) was added dropwise to the DNA solution (5 mL). The mixture was irradiated with 15 J/cm2 UVA light in a glass dish for 1 h. After irradiation, the DNA was precipitated with 1 M NaCl and two volumes of cold ethanol; the precipitated DNA was collected, washed with 80% ethanol, dried, and then dissolved in water. To obtain hydrolysis, the final solution was acidified with 1 M HCl, heated at 100 °C for 1 h, neutralized with NaOH and extracted three times with chloroform. Then, all of the organic layers were collected, dried under a high vacuum, and dissolved in ethanol. The hydrolyzed mixtures were separated by thin layer chromatography (TLC; F254 plates, 0.25 mm, Merck, Darmstadt, Germany) eluting with EtOAc/EtOH (9:1). The plates were analyzed with a Mineral Light Lamp VL-4LC VILBERT-LOURMAT (Vilber, Marne-la-Vallée, France).

[1] = system: Salmonella typhimurium TA98; test: Ames mutagenicity assay, plate incorporation, TA98; format: cell-based
Experimental: (§1) The mutagenicity assay was performed for the test compounds following the plate incorporation method with the histidine-requiring Salmonella typhimurium mutant TA97A, TA98, TA100, and TA1535 strains purchased by Molecular Toxicology Inc. (Boone, NC, USA; moltox.com). All strains (100 µL per plate of fresh overnight cultures) were checked with and without the addition of 0.5 mL of a 5% S9 exogenous metabolic activator (S9 mix). The lyophilized post-mitochondrial supernatant S9 mix (Aroclor 1254-induced, Sprague–Dawley male rat liver in 0.154 M KCl solution), commonly used for the activation of pro-mutagens in mutagenic metabolites (Molecular Toxicology, Inc., Boone, NC, USA), was stored at −80 °C before use. The concentration tested for all the samples were 5, 10, 20, 50, and 100 µL/plate from a stock solution of 500 nM. A fully grown culture of the appropriate tester strain (0.1 mL) was added to 2 mL molten top agar (0.6% agar, 0.6% NaCl, 0.5 mM L-histidine/biotin solution) at 46 °C, together with 0.1 mL of each sample solution at different concentrations, and 0.5 mL S9 mix for assays with metabolic activation. The ingredients were thoroughly mixed and poured onto minimal glucose agar plates (1.5% agar in 2% Vogel–Bonner medium E with 5% glucose solution). DMSO was used as negative a control (100 µL/plate). Positive controls were prepared as follows: 2-aminoanthracene (2 µg/plate) and 2-nitrofluorene (2 µg/plate) for TA 97A, TA98 and TA1535 with and without metabolic activator (S9 mix), respectively; 2-aminoanthracene (2 µg/plate) and sodium azide (2 µg/plate) for TA100, with and without metabolic activator (S9 mix), respectively. The plates were incubated at 37 °C for 72 h and then his+ revertants were checked and counted using a Colony Counter 560 Suntex (Antibioticos, Italy). A sample was considered mutagenic when the observed number of colonies was at least twofold over the spontaneous level of revertants. All determinations were made in triplicate. Statistical analysis: relative standard deviations were calculated using the statistical software STATISTICA 6.0 (StatSoft, Italia srl, Vigonza, Italy). […]
(§2) Salmonella typhimurium TA97A Salmonella typhimurium TA98 Salmonella typhimurium TA100 Salmonella typhimurium 1535 […]
(§3) average SD t/c average SD t/c average SD t/c average SD t/c average SD t/c average SD t/c average SD t/c average SD t/c […]
(§4) *Significant values according to Ames computation (Maron & Ames, 1983); DMSO, C+: negative and positive controls respectively; SD: Standard Deviation; t/c: number of revertant colonies in treated plates/number of revertant colonies in […]

[2] = system: Salmonella typhimurium TA100; test: Ames mutagenicity assay, plate incorporation, TA100; format: cell-based
Experimental: as §1, §2, §3, §4

[3] = system: Salmonella typhimurium 1535; test: Ames mutagenicity assay, plate incorporation, TA1535; format: cell-based
Experimental: as §1, §2, §3, §4

[4] = TA98, +S9, 5 µL/plate of 500 nM stock
[5] = TA98, +S9, 10 µL/plate of 500 nM stock
[6] = TA98, +S9, 20 µL/plate of 500 nM stock
[7] = TA98, +S9, 50 µL/plate of 500 nM stock
[8] = TA98, +S9, 100 µL/plate of 500 nM stock
[9] = TA98, -S9, 5 µL/plate of 500 nM stock
[10] = TA98, -S9, 10 µL/plate of 500 nM stock
[11] = TA98, -S9, 20 µL/plate of 500 nM stock
[12] = TA98, -S9, 50 µL/plate of 500 nM stock
[13] = TA98, -S9, 100 µL/plate of 500 nM stock
[14] = TA100, +S9, 5 µL/plate of 500 nM stock
[15] = TA100, +S9, 10 µL/plate of 500 nM stock
[16] = TA100, +S9, 20 µL/plate of 500 nM stock
[17] = TA100, +S9, 50 µL/plate of 500 nM stock
[18] = TA100, +S9, 100 µL/plate of 500 nM stock
[19] = TA100, -S9, 5 µL/plate of 500 nM stock
[20] = TA100, -S9, 10 µL/plate of 500 nM stock
[21] = TA100, -S9, 20 µL/plate of 500 nM stock
[22] = TA100, -S9, 50 µL/plate of 500 nM stock
[23] = TA100, -S9, 100 µL/plate of 500 nM stock
[24] = 1535, +S9, 5 µL/plate of 500 nM stock
[25] = 1535, +S9, 10 µL/plate of 500 nM stock
[26] = 1535, +S9, 20 µL/plate of 500 nM stock
[27] = 1535, +S9, 50 µL/plate of 500 nM stock
[28] = 1535, +S9, 100 µL/plate of 500 nM stock
[29] = 1535, -S9, 5 µL/plate of 500 nM stock
[30] = 1535, -S9, 10 µL/plate of 500 nM stock
[31] = 1535, -S9, 20 µL/plate of 500 nM stock
[32] = 1535, -S9, 50 µL/plate of 500 nM stock
[33] = 1535, -S9, 100 µL/plate of 500 nM stock

Cc1cc(=O)oc2c1cc(-c1ccccc1)c1occ(C)c12 [6-PhDMA]
photoadduct formation with DNA upon UVA irradiation (salmon testes DNA): only the unchanged bands
revertant colonies, average [1, 4]: 45.5
t/c (revertant colonies treated/untreated plates) [1, 4]: 1.0
revertant colonies, average [1, 5]: 49.5
t/c (revertant colonies treated/untreated plates) [1, 5]: 1.1
revertant colonies, average [1, 6]: 46.5
t/c (revertant colonies treated/untreated plates) [1, 6]: 1.0
revertant colonies, average [1, 7]: 46.0
t/c (revertant colonies treated/untreated plates) [1, 7]: 1.0
revertant colonies, average [1, 8]: 45.0
t/c (revertant colonies treated/untreated plates) [1, 8]: 1.0
revertant colonies, average [1, 9]: 37.5
t/c (revertant colonies treated/untreated plates) [1, 9]: 1.0
revertant colonies, average [1, 10]: 41.0
t/c (revertant colonies treated/untreated plates) [1, 10]: 1.1
revertant colonies, average [1, 11]: 38.0
t/c (revertant colonies treated/untreated plates) [1, 11]: 1.0
revertant colonies, average [1, 12]: 43.5
t/c (revertant colonies treated/untreated plates) [1, 12]: 1.1
revertant colonies, average [1, 13]: 40.0
t/c (revertant colonies treated/untreated plates) [1, 13]: 1.0
revertant colonies, average [2, 14]: 182.0
t/c (revertant colonies treated/untreated plates) [2, 14]: 1.1
revertant colonies, average [2, 15]: 178.5
t/c (revertant colonies treated/untreated plates) [2, 15]: 1.0
revertant colonies, average [2, 16]: 184.5
t/c (revertant colonies treated/untreated plates) [2, 16]: 1.1
revertant colonies, average [2, 17]: 178.0
t/c (revertant colonies treated/untreated plates) [2, 17]: 1.0
revertant colonies, average [2, 18]: 203.0
t/c (revertant colonies treated/untreated plates) [2, 18]: 1.2
revertant colonies, average [2, 19]: 186.5
t/c (revertant colonies treated/untreated plates) [2, 19]: 1.0
revertant colonies, average [2, 20]: 220.0
t/c (revertant colonies treated/untreated plates) [2, 20]: 1.1
revertant colonies, average [2, 21]: 172.0
t/c (revertant colonies treated/untreated plates) [2, 21]: 0.9
revertant colonies, average [2, 22]: 202.5
t/c (revertant colonies treated/untreated plates) [2, 22]: 1.0
revertant colonies, average [2, 23]: 185.5
t/c (revertant colonies treated/untreated plates) [2, 23]: 0.9
revertant colonies, average [3, 24]: 13.5
t/c (revertant colonies treated/untreated plates) [3, 24]: 1.3
revertant colonies, average [3, 25]: 12.5
t/c (revertant colonies treated/untreated plates) [3, 25]: 1.2
revertant colonies, average [3, 26]: 10.0
t/c (revertant colonies treated/untreated plates) [3, 26]: 0.9
revertant colonies, average [3, 27]: 10.0
t/c (revertant colonies treated/untreated plates) [3, 27]: 0.9
revertant colonies, average [3, 28]: 14.0
t/c (revertant colonies treated/untreated plates) [3, 28]: 1.3
revertant colonies, average [3, 29]: 13.5
t/c (revertant colonies treated/untreated plates) [3, 29]: 1.2
revertant colonies, average [3, 30]: 14.5
t/c (revertant colonies treated/untreated plates) [3, 30]: 1.3
revertant colonies, average [3, 31]: 7.5
t/c (revertant colonies treated/untreated plates) [3, 31]: 0.7
revertant colonies, average [3, 32]: 8.0
t/c (revertant colonies treated/untreated plates) [3, 32]: 0.7
revertant colonies, average [3, 33]: 9.0
t/c (revertant colonies treated/untreated plates) [3, 33]: 0.8
